In patent US11518805B2, “Binding inhibitor between TCTP dimer type IgE-dependent histamine releasing factor and receptor thereof, and use thereof” (EWHA UNIVERSITY—INDUSTRY COLLABORATION FOUNDATION, priority 2014, dated 2022):

Assays:
[1] = test system: CIA (collagen-induced arthritis) mouse model; assay: Preventive effect of dTBP2 in CIA (collagen-induced arthritis) mouse model; type: in vivo, male DBA1/j mice; settings: for joint thickness: preventive
[2] = test system: HRF; assay: Phage clone ELISA for binding to immobilized HRF
Experimental: Particularly, HRF was dissolved in a coating buffer (0.1 M NaHCO 3, pH 8.6) at the concentration of 20 μg/ml, which was loaded in a polystyrene microtiter plate (50 ? /well), followed by coating at 4° C. for overnight and blocking non-specific binding with BSA. The plate was washed with 0.1% Tween/TBS (TBST) 6 times. […] The plate stood at room temperature for 1 hour. TBST was added thereto, and the plate stood for 5 minutes, followed by washing. The washing was performed once after one round of panning, 5 times after 2 and 3 rounds of panning, and 10 times after 4 rounds of panning. 50 ? of glycine/HCl buffer (pH 2.2) was added thereto, which stood for 5 minutes. Then, phages were eluted, and then neutralization was induced with 8 ? of 1 M Tris-HCl (pH 9.1). The eluted phage solution was added to 20 ? of ER2537 culture medium (OD600=0.5˜1), followed by culture in a 37° C. shaking incubator (rpm=200) for 2 hours. 100 ? of SB medium was added thereto, followed by culture for overnight with shaking (250 rpm). The culture solution was centrifuged at 10,000 rpm (4° C.) for 15 minutes. 100 ? of the obtained supernatant was added with 30 ? of 5×PEG/NaCl (20% PEG(w/v), 15% NaCl (w/v)), followed by dissolving for 5 minutes. The mixture was then left in ice for 30 minutes. The mixture was centrifuged at 10,000 rpm (4° C.) for 20 minutes and the supernatant was discarded. The obtained pellet was suspended in 1 ? of 3% BSA/TBS. After performing centrifugation at 14,000 rpm for 5 minutes, the supernatant was obtained and used for panning. Affinity purification and phage replication were repeated 4 times, followed by eluting phages. Each phage clone was obtained from the proper plate of the eluted phage, followed by ELISA. Those phage clones showing a specific affinity to HRF were separated, followed by sequencing to confirm the peptide sequence. Those phage display peptides showing dominant binding to HRF were selected and listed below:
That is, each phage plaque was added to 1 ? of the ER2537 culture medium (OD600=0.5˜1) cultured in SB medium, followed by culture in a 37° C. incubator (rpm=250) for 5 hours. 100 ? of each culture solution was added to 900 ? of SB medium, followed by culture for overnight. […]
Each phage solution separated above was diluted in an equal volume of 6% BSA/PBS, and 50 ? of the diluted solution was added to each well of the plastic well plate coated with HRF or BSA (control), which stood for 2 hours. […] After adding peroxidase substrate solution thereto (100 ? /well), OD405 was measured with an ELISA reader.
HRF was diluted serially by ⅕ fold each from the concentration of 20 μg/ ? […] The phage 2 solution diluted serially by ⅕ fold each (½, 1/10, 1/50, 1/250, and 1/1250 of the stock solution) was added thereto, followed by ELISA and OD405 was measured.

[3] = test system: CIA mouse model; assay: Treatment effect of dTBP2 in CIA mouse model; type: in vivo, DBA1/j mice
[4] = test system: atopic dermatitis mouse model; assay: Effect of dTBP2 in atopic dermatitis mouse model (Biostir AD); type: in vivo, female NC/Nga mice
Experimental: Particularly, 5 week old specific pathogen free female NC/Nga mice were purchased from Orientbio Inc. (Seoul, Korea), which were adapted for 1 week. After depilating with a hair removal agent, Biostir® AD ointment (Biostir, Japan) was used to induce atopic dermatitis on the dorsal skin. That is, hair was removed from the back of the mouse, on which 150 μl of 4% SDS dissolved in PBS was applied. After 2-3 hours of natural dry, 100 mg of Biostir® AD cream was evenly applied on the back skin and the ear skin of the mouse. The cream was applied twice a week, 6 times total for 3 weeks. It was confirmed that the skin layer of the mouse became thick and keratin was formed on the back skin.
To investigate the effect of dTBP2 on atopic dermatitis in the atopic dermatitis-induced mouse, the positive control was administered with PBS, the comparative experimental group was administered with protopic ointment (Astellas Pharma Manufacturing Inc., USA), and the experimental group was treated with dTPB2. On day 0, PBS (subcutaneous injection, 25 mg/kg), protopic ointment (skin application, 100 mg/mouse) and dTBP2 (subcutaneous injection, 25 mg/kg) were respectively applied. On day 1, 100 mg of Biostir® AD cream was applied thereto. On day 2 and day 3, PBS, protopic ointment, and dTBP2 were treated thereto by the same manner as performed on day 0. On day 4, 100 mg of Biostir® AD cream was applied thereto. On day 5, PBS, protopic ointment, and dTBP2 were treated thereto by the same manner as performed on day 0.
Atopic symptoms were observed and presented as points according to the atopic index such as erythema, drying, excoriation, edema, and erosion, based on which a graph was made (FIG. 32b, 0: no symptoms, 1: weak symptoms, 2: median symptoms, 3: severe symptoms). It was confirmed on the graph that atopy was minor in the group treated with protopic ointment and dTBP2, compared with the control.
Once atopic allergy is induced, the stratum corneum and skin layer become thick and the infiltration of inflammatory cells is increased. For the histological evaluation, hematoxylin/eosin staining and toluidine blue staining were performed. The thickness of the skin and the infiltration of immune related inflammatory cells were observed under microscope. As a result, the atopic symptoms including the thick stratum corneum were improved in the groups treated with protopic ointment and dTBP2, compared with the control group treated with PBS alone (FIGS. 34a and 34b).
Lymph node assay examining the effect of an antigen or a drug by observing the changes of lymph node weight was performed to investigate inflammatory reaction induced by skin sensitizing materials.

[5] = test system: HRF; assay: HRF binding affinity of heptamer peptides by ELISA (alanine scan of p2); settings: p2 and its substituted heptamers m1-m7
Text: In order to confirm the residues involved in the HRF binding affinity of the heptamer peptide of the present invention, the amino acid sequence of p2 was substituted with alanine (A), and only m5 was substituted with lysine (K). As a result, the following sequences were established: […]

[6] = dTBP2 25 mg/kg s.c., protopic ointment 100 mg/mouse, vs PBS

binding force to serially diluted HRF (ELISA, OD405) ([2]; HRF diluted until 0.4, 0.08, 0.016, and 0.032 μg/ml, phage solution serially diluted): maintained its binding force to HRF
binding of phage clone to HRF (ELISA, OD405) ([2]; wells coated with HRF or BSA (control)): specifically bind to HRF
HRF binding affinity (rank order) [5]: p2, m6>m7>m3>m2>fm5>M1>m4
Substance: WYVYPSM (IgE-dependent histamine-releasing factor binding peptide2) [dTBP2, ID; NO: 24]
joint thickness ([1]; 5 mg of dTBP2): continuously increased until day 41 and rapidly increased from day 41 to day 46
development of rheumatoid arthritis ([1]; 25 mg of dTBP2, three times a week, vs vehicle alone or 5 mg): inhibited more significantly
joint thickness ([1]; 25 mg of dTBP2): almost as same as that of the normal until day 46
inhibition of incidence rate ([1]; day 31, 25 mg of dTBP2, vs vehicle alone or 5 mg): at least 50%
inhibition of incidence rate ([1]; day 46, 25 mg of dTBP2, vs vehicle alone or 5 mg): at least 70%
joint thickness ([3]; 5 mg of dTBP2 from day 41): continuously increased
joint thickness ([3]; 25 mg of dTBP2 from day 41): reduced
arthritis clinical score ([3]; 25 mg of dTBP2 from day 41, vs vehicle alone or 5 mg): getting lower
IL-4 mRNA level [4, 6]: significantly decreased
IL-13 mRNA level [4, 6]: significantly decreased
atopic symptoms including thick stratum corneum (H&E, skin thickness) [4, 6]: improved
histamine level [4, 6]: lower
level of Th17A [4, 6]: lowered
lymph node weight and size (lymph node assay) [4, 6]: smaller in both weight and size than that of the PBS treated group
infiltration of mast cells (toluidine blue) ([4]; dTBP2 25 mg/kg s.c., protopic ointment 100 mg/mouse, vs positive control): significantly reduced
atopic symptoms as points (atopic index: erythema, drying, excoriation, edema, erosion) ([4]; dTBP2 subcutaneous 25 mg/kg, protopic ointment 100 mg/mouse, vs control): minor
degree of atopy, visually confirmed ([4]; dTBP2 subcutaneous 25 mg/kg, protopic ointment skin application 100 mg/mouse, vs control): lesser degree of atopy than the control group
